Results taken from patent US20250179028A1, “ACRYLAMIDE COMPOUNDS” (NRG THERAPEUTICS LTD, priority 2022, published 2025).

System: mPTP
Assay: mPTP mitochondria membrane potential flow cytometry assay in stimulated human platelets
Assay type: cell-based
Description: The mPTP cell based assay was performed using a mitochondria membrane potential flow cytometry assay in stimulated human platelets. Simulation of platelets results in the rapid influx of Ca^2+ across the platelet membrane. The Ca^2+ is then sequestered by mitochondria until the threshold for mPTP opening is reached, at which point the pore opens and the mitochondrial membrane potential is dissipated. Changes in mitochondria membrane potential due to mPTP opening can be quantified in live platelets using standard mitochondrial membrane potential dyes e.g. 3,3′-dihexyloxacarbocyanine Iodide; DiOC6(3), enabling pharmacological characterisation of mPTP inhibitors.
Fresh human blood (20 ml) was collected from consenting donors into 3.2% sodium citrate. Platelets were isolated by centrifugation at 200 g for 20 min at room temperature, then the platelet rich plasma layer transferred to a fresh tube. Prostaglandin 12 is added to the platelets at a final concentration of 20 ng/ml. After centrifugation at 640 g for 10 min, the platelet rich pellet was resuspended in 4 ml HEPES assay buffer (137 mM NaCl, 2.7 mM KCl, 11.9 mM NaHCO3, 0.42 mM NaH2PO4, 1 mM MgCl2, 5.5 mM glucose, 0.1% bovine serum albumin, 10 mM HEPES adjusted to pH 7.4) and stored on ice.
Test compounds were prepared from 10 mM stocks in DMSO and serially diluted in assay buffer containing 0.4% DMSO and 25 μl transferred into a 96 well plate. Platelets were loaded with the mitochondrial membrane potential dye DiOC6(3) (3,3′-dihexyloxacarbocyanine Iodide; Invitrogen) at 200 nM for 30 min, then 50 μl plated into each well of the 96 well plate containing diluted test compound and incubated for 15 min. Control wells included DMSO (0.1% final concentration) only or 5 μM cyclosporin A. Platelets were then stimulation with the addition of assay buffer (25 μl) containing CaCl2, alpha thrombin and Convulxin to achieve a final concentrations of 2 mM, 0.017 U/ml and 0.167 μg/ml respectively and incubated for 14 min. The reaction was stopped by the addition of 25 μl 15 mM EDTA in assay buffer. The mitochondrial membrane potential across the population of platelets in each well was then quantified by flow cytometry using a Guava easyCyte 5 Benchtop Flow Cytometer with 3000 events per well. The percentage of platelets with a depolarised mitochondrial membrane potential was calculated for each well. A pIC50 for each compound was then calculated using a standard four parameter curve fit model (GraphPad Prism).

Structure (SMILES)	mPTP Human Platelets pIC50
Cc1c(F)cccc1NC(=O)/C=C/c1ccc2cn[nH]c2c1 [Comparative Example 1, (E)-N-(2-methyl-3-fluorophenyl)-3-(1H-indazol-6-yl)acrylamide, reference compound]	6.9
Cc1c(F)cccc1NC(=O)/C=C/c1ccc2oc(=O)[nH]c2c1 [Example 6, (E)-N-(3-fluoro-2-methylphenyl)-3-(2-oxo-2,3-dihydrobenzo[d]oxazol-5-yl)acrylamide]	7.0
Cc1c(F)cccc1NC(=O)/C=C/c1ccc2c(c1)[nH]c(=O)n2C [Example 7, (E)-N-(3-fluoro-2-methylphenyl)-3-(1-methyl-2-oxo-2,3-dihydro-1H-benzo[d]imidazol-5-yl)acrylamide]	7.2
Cc1c(F)cccc1NC(=O)/C=C/c1ccc2c(c1)NC(=O)C2 [Example 10, (E)-N-(3-fluoro-2-methylphenyl)-3-(2-oxoindolin-6-yl)acrylamide]	7.0
